# Laboratory results taken from ChEMBL document CHEMBL3576778, “Structure-Activity Relationship Studies of a Series of Semisynthetic Lipopeptides Leading to the Discovery of Surotomycin, a Novel Cyclic Lipopeptide Being Developed for the Treatment of Clostridium difficile-Associated Diarrhea” (J Med Chem, 2015).
# Columns and labels:
# Clostridioides difficile [1] = assay: Antimicrobial activity against metronidazole-resistant Clostridium difficile; type: functional
# Clostridioides difficile [2] = assay: Antimicrobial activity against daptomycin-resistant Clostridium difficile ATCC 43596 infected in Syrian golden hamster model of Clostridium difficile-associated diarrhea assessed as protection against microbial infection by measuring survival at day 25 to 26 at 0.5 mg/kg treated once daily for 5 consecutive days starting 4 hrs after spore inoculation; type: functional
# Clostridioides difficile [3] = assay: Antimicrobial activity against vancomycin-resistant Clostridium difficile; type: functional
# Bacteroides fragilis = assay: Toxicity against Bacteroides fragilis assessed as inhibition of microbe growth; type: organism-based
compound,measurement,setting,value
Cc1ncc([N+](=O)[O-])n1CCO [METRONIDAZOLE],MIC,Clostridioides difficile [1],≥ 8 µg/mL
CN[C@H](CC(C)C)C(=O)N[C@H]1C(=O)N[C@@H](CC(N)=O)C(=O)N[C@H]2C(=O)N[C@H]3C(=O)N[C@H](C(=O)N[C@H](C(=O)O)c4cc(O)cc(O)c4-c4cc3ccc4O)[C@H](O)c3ccc(c(Cl)c3)Oc3cc2cc(c3O[C@@H]2O[C@H](CO)[C@@H](O)[C@H](O)[C@H]2O[C@H]2C[C@](C)(N)[C@H](O)[C@H](C)O2)Oc2ccc(cc2Cl)[C@H]1O [VANCOMYCIN],survival at 0.5 mg/kg,Clostridioides difficile [2],25%
same,MIC,Clostridioides difficile [3],≥ 4 µg/mL
CCCCCc1ccc(/C(C)=C/C(=O)N[C@@H](Cc2c[nH]c3ccccc23)C(=O)N[C@H](CC(N)=O)C(=O)N[C@@H](CC(=O)O)C(=O)N[C@@H]2C(=O)NCC(=O)N[C@@H](CCCN)C(=O)N[C@@H](CC(=O)O)C(=O)N[C@H](C)C(=O)N[C@@H](CC(=O)O)C(=O)NCC(=O)N[C@H](CO)C(=O)N[C@@H]([C@@H](C)CC(=O)O)C(=O)N[C@@H](CC(=O)c3ccccc3N)C(=O)O[C@@H]2C)cc1,MIC,Bacteroides fragilis,>= 8192 ug ml-1
